In patent US9890176B2, “Mannose derivatives for treating bacterial infections” (Vertex Pharmaceuticals Incorporated, priority 2013, dated 2018):

Each molecule was assayed on bacterial strain LF82 binding to the glycoprotein BSA-(Mannose)3 (assay: Bacterial Binding Assay (BBA)). Conditions: read-out: Bacterial Binding Assay IC50.
Type: cell-based, Escherichia coli
Procedure, shortened: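 Luciferase-tagged E. coli LF82 grown overnight at 37° C without shaking, then added at 2×10^8 bacteria/mL (10^7 per well) to wells coated with 0.5-2 μg/mL BSA-(Man)3 and blocked with 2% BSA. Compound in 0.2% BSA/D-PBS; binding 40-75 min at room temperature. Washed; bound bacteria read by luciferase luminescence; IC50.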

First: Cc1cc(-c2ccnc(-c3ccc(O[C@H]4O[C@H](CO)[C@@H](O)[C@H](O)[C@]4(C)O)c(C)c3)c2)ccc1O[C@H]1O[C@H](CO)[C@@H](O)[C@H](O)[C@]1(C)O [Example 122, (2R,3S,4S,5S,6R)-6-(hydroxymethyl)-3-methyl-2-[2-methyl-4-[2-[3-methyl-4-[(2R,3S,4S,5S,6R)-3,4,5-trihydroxy-6-(hydroxymethyl)-3-methyl-tetrahydropyran-2-yl]oxy-phenyl]-4-pyridyl]phenoxy]tetrahydropyran-3,4,5-triol]
Second: Cc1ccc(-c2ccc(C)c(O[C@H]3O[C@H](CO)[C@@H](O)[C@H](O)[C@]3(C)O)c2)cc1O[C@H]1O[C@H](CO)[C@@H](O)[C@H](O)[C@]1(C)O [Example 113, (2R,3S,4S,5S,6R)-6-(hydroxymethyl)-3-methyl-2-[2-methyl-5-[4-methyl-3-[(2R,3S,4S,5S,6R)-3,4,5-trihydroxy-6-(hydroxymethyl)-3-methyl-tetrahydropyran-2-yl]oxy-phenyl]phenoxy]tetrahydropyran-3,4,5-triol]
The IC50 of the first is 25-fold lower: 0.6 ± 0.3 nM for the first, 15 ± 11 nM for the second. The first is the more potent here.

First: C[C@H](O)[C@H]1O[C@H](Oc2ccc(N3CCc4cc([N+](=O)[O-])ccc43)cc2Cl)[C@@H](O)[C@@H](O)[C@@H]1O [compound 28]
Second: CNC(=O)c1cccc(-c2ccc(O[C@H]3O[C@H]([C@@H](C)O)[C@@H](O)[C@H](O)[C@@H]3O)c(C)c2)c1 [compound 29]
The IC50 of the first is lower: 1300 nM for the first, greater than 10000 nM for the second.

First: Cc1cc(-c2cccc(C(=O)NC(CO)(CO)CO)c2)ccc1O[C@H]1O[C@H](CO)[C@@H](O)[C@H](O)[C@]1(C)O [Compound 60]
Second: Cc1cc(-c2cccc(C(=O)NC(CO)CO)c2)ccc1O[C@H]1O[C@H](CO)[C@@H](O)[C@H](O)[C@]1(C)O [Compound 62]
The IC50 of the first is 1.8-fold higher: 16 ± 0.5 nM for the first, 9 ± 3 nM for the second.

Compared with `Cc1cc(-c2cccc(C(=O)O)c2)ccc1O[C@H]1O[C@H](CO)[C@@H](O)[C@H](O)[C@]1(C)O` [Compound 21], `COC(=O)c1cccc(-c2ccc(O[C@H]3O[C@H](CO)[C@@H](O)[C@H](O)[C@]3(C)O)c(C)c2)c1` [Compound 57] is 6.6-fold lower in IC50: 112 ± 37 nM for the first, 17 ± 4 nM for the second.

Compared with `Cc1cc(-c2cccc(C(=O)N[C@@H](CO)[C@H](C)O)c2)ccc1O[C@H]1O[C@H](CO)[C@@H](O)[C@H](O)[C@]1(C)O` [Compound 59], `CNC(=O)c1cccc(-c2ccc(O[C@H]3O[C@H](CO)[C@@H](O)[C@H](O)[C@@]3(O)CN)c(C)c2)c1` [Compound 48] is 30-fold higher in IC50: 20 ± 4 nM for the first, 605 ± 215 nM for the second.

`Cc1cc(-c2cccc(C(=O)NCCN3CCN(C)CC3)c2)ccc1O[C@H]1O[C@H](CO)[C@@H](O)[C@H](O)[C@]1(C)O` [Compound 58] and `Cc1cc(-c2cccc(C(=O)NCCN3CCOCC3)c2)ccc1O[C@H]1O[C@H](CO)[C@@H](O)[C@H](O)[C@]1(C)O` [Compound 63] are within error of each other in IC50: 13 ± 1 nM for the first, 12 ± 3 nM for the second.

Compared with `Cc1cc(-c2cccc(C(=O)N(CCO)C(CO)(CO)CO)c2)ccc1O[C@H]1O[C@H](CO)[C@@H](O)[C@H](O)[C@]1(C)O` [Compound 71], `Cc1cc(-c2cccc(C(=O)N[C@H]3[C@H](O)[C@@H](CO)OC(O)[C@@H]3O)c2)ccc1O[C@H]1O[C@H](CO)[C@@H](O)[C@H](O)[C@]1(C)O` (stereo partly shown) [Compound 65] is 2.5-fold higher in IC50: 8 ± 2 nM for the first, 20 ± 8 nM for the second.

First: COCCNC(=O)c1cccc(-c2ccc(O[C@H]3O[C@H](CO)[C@@H](O)[C@H](O)[C@]3(C)O)c(Cl)c2)c1 [Compound 53]
Second: CNC(=O)c1cccc(-c2ccc(Cl)c(O[C@H]3O[C@H](CO)[C@@H](O)[C@H](O)[C@]3(C)O)c2)c1 [Compound 44]
The IC50 of the first is 1.8-fold lower: 24 ± 6 nM for the first, 43 ± 12 nM for the second.

Going from `CNC(=O)c1cccc(-c2ccc(O[C@H]3O[C@H](CO)[C@@H](O)[C@H](O)[C@@]3(O)COCCO)c(C)c2)c1` [Compound 50] to `CNC(=O)c1cccc(-c2ccc(O[C@H]3O[C@H](CO)[C@@H](O)[C@H](O)[C@@]3(O)COCc3ccccc3)c(C)c2)c1` [Compound 23], the IC50 falls from 830 ± 170 nM to 115 ± 25 nM (7.2-fold).

Going from `Cc1cc(-c2cccc(Cl)c2F)ccc1O[C@H]1O[C@H](CO)[C@@H](O)[C@H](O)[C@]1(C)O` [Compound 93] to `COc1c(F)cccc1-c1ccc(O[C@H]2O[C@H](CO)[C@@H](O)[C@H](O)[C@]2(C)O)c(C)c1` [Compound 90], the IC50 falls from 215 ± 5 nM to 83 ± 3 nM (2.6-fold).

First: CNC(=O)c1ccc(-c2ccc(Cl)c(O[C@H]3O[C@H](CO)[C@@H](O)[C@H](O)[C@]3(C)O)c2)cc1 [Compound 45]
Second: CNC(=O)c1cccc(-c2ccc(O[C@H]3O[C@H](CO)[C@@H](O)[C@H](O)[C@]3(C)O)c(OC)c2)c1 [Example 17, 3-[3-methoxy-4-[(2R,3S,4S,5S,6R)-3,4,5-trihydroxy-6-(hydroxymethyl)-3-methyl-tetrahydropyran-2-yl]oxy-phenyl]-N-methyl-benzamide]
The IC50 of the first is 4.3-fold higher: 116 ± 34 nM for the first, 27 ± 8 nM for the second. The second is the more potent here.

`COc1cc(Cl)c(Cl)cc1-c1ccc(O[C@H]2O[C@H](CO)[C@@H](O)[C@H](O)[C@]2(C)O)c(C)c1` [Compound 100] and `Cc1cc(-c2ccc(Cl)c(Cl)c2)ccc1O[C@H]1O[C@H](CO)[C@@H](O)[C@H](O)[C@]1(C)O` [Compound 82] are within error of each other in IC50: 155 ± 25 nM for the first, 110 ± 31 nM for the second.

Compared with `CC[C@H](O)[C@H]1O[C@H](Oc2ccc(-c3cccc(C(=O)NC)c3)cc2C)[C@@H](O)[C@@H](O)[C@@H]1O` [Compound 31], `Cc1cc(-c2ccc3cc[nH]c3c2)ccc1O[C@H]1O[C@H](CO)[C@@H](O)[C@H](O)[C@]1(C)O` [Compound 89] is lower in IC50: greater than 10000 nM for the first, 455 ± 95 nM for the second. The second is the more potent here.

First: Cc1cc(-c2ccc(F)c(Cl)c2)ccc1O[C@H]1O[C@H](CO)[C@@H](O)[C@H](O)[C@]1(C)O [Compound 92]
Second: Cc1cc(-c2ccc(F)c(C(=O)N3CCCC3)c2)ccc1O[C@H]1O[C@H](CO)[C@@H](O)[C@H](O)[C@]1(C)O [Compound 85]
The IC50 of the first is 2.7-fold higher: 82 ± 15 nM for the first, 30 ± 8 nM for the second.

Compared with `Cc1cc(-c2cccc(C(=O)NCC3CCN(C(=O)OC(C)(C)C)CC3)c2)ccc1O[C@H]1O[C@H](CO)[C@@H](O)[C@H](O)[C@]1(C)O` [Compound 66], `COc1c(F)cc(F)cc1-c1ccc(O[C@H]2O[C@H](CO)[C@@H](O)[C@H](O)[C@]2(C)O)c(C)c1` [Compound 99] is 3.5-fold higher in IC50: 11 ± 3 nM for the first, 38 ± 8 nM for the second. The first is the more potent here.

`C[C@@]1(O)[C@@H](Oc2ccc(-c3ccc(O[C@H]4O[C@H](CO)[C@@H](O)[C@H](O)[C@]4(C)O)c(C#N)c3)cc2C#N)O[C@H](CO)[C@@H](O)[C@@H]1O` [Example 111, 5-[3-cyano-4-[(2R,3S,4S,5S,6R)-3,4,5-trihydroxy-6-(hydroxymethyl)-3-methyl-tetrahydropyran-2-yl]oxy-phenyl]-2-[(2R,3S,4S,5S,6R)-3,4,5-trihydroxy-6-(hydroxymethyl)-3-methyl-tetrahydropyran-2-yl]oxy-benzonitrile] showed an IC50 of 6 ± 2 nM.
